Here are results for 25 molecules from PubChem BioAssay AID330 (DTP/NCI, 2004).

The test system of the test is P388 leukemia ip, CD2F1 mice, survival T/C. Kind of test: NCI In Vivo Anticancer Drug Screen. Data for tumor model P388 Leukemia (intraperitoneal) in CD2F1 (CDF1) mice. Conditions: endpoint: median survival time, higher = longer survival. The essentials: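 Mice carrying the transplanted tumor received test compound or vehicle. Survival was recorded in each group, and the value is the treated-group measurement divided by that of the vehicle-treated control group.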

[1] abbreviates: dose: 50.0 mg/kg/injection, schedule: Q01DX005 (ip), vehicle: saline.
Setting [2] is: dose: 100.0 mg/kg/injection, schedule: Q01DX005 (ip), vehicle: saline.
[3] abbreviates: dose: 200.0 mg/kg/injection, schedule: Q01DX005 (ip), vehicle: saline.
Where [4] appears, read: dose: 50.0 mg/kg/injection, schedule: Q01DX005 (ip), vehicle: saline with Tween-80.
Where [5] appears, read: dose: 100.0 mg/kg/injection, schedule: Q01DX005 (ip), vehicle: saline with Tween-80.
The mark [6] stands for this setting: dose: 200.0 mg/kg/injection, schedule: Q01DX005 (ip), vehicle: saline with Tween-80.
The mark [7] stands for this setting: dose: 100.0 mg/kg/injection, schedule: Q01DX001 (ip), vehicle: saline with Tween-80.
Setting [8] is: dose: 200.0 mg/kg/injection, schedule: Q01DX001 (ip), vehicle: saline with Tween-80.
Setting [9] is: dose: 400.0 mg/kg/injection, schedule: Q01DX001 (ip), vehicle: saline with Tween-80.
The mark [10] stands for this setting: dose: 50.0 mg/kg/injection, schedule: Q01DX005 (ip), vehicle: Klucel (hydroxypropylcellulose) (HPC).
The mark [11] stands for this setting: dose: 100.0 mg/kg/injection, schedule: Q01DX005 (ip), vehicle: Klucel (hydroxypropylcellulose) (HPC).
The mark [12] stands for this setting: dose: 25.0 mg/kg/injection, schedule: Q01DX009 (ip), vehicle: saline.
Where [13] appears, read: dose: 50.0 mg/kg/injection, schedule: Q01DX009 (ip), vehicle: saline.
Where [14] appears, read: dose: 100.0 mg/kg/injection, schedule: Q01DX009 (ip), vehicle: saline.
Where [15] appears, read: dose: 200.0 mg/kg/injection, schedule: Q01DX009 (ip), vehicle: saline.

SMILES strings stand for the structures. Where “and” joins values, the source holds several entries; their conditions need not be identical. Equal values may be shown once. Inconclusive results and toxic doses are left out.

For the molecule `NC(CSC(c1ccccc1)(c1ccccc1)c1ccc(Cl)cc1)C(=O)O` (stereo not drawn), the T/C was 177 % of control (dose: 33.0 mg/kg/injection, schedule: Q04DX003 (ip), vehicle: saline with Tween-80); 181 % of control and 272 % of control (dose: 50.0 mg/kg/injection, schedule: Q04DX003 (ip), vehicle: saline with Tween-80); 200 % of control (dose: 75.0 mg/kg/injection, schedule: Q04DX003 (ip), vehicle: saline with Tween-80); 100 % of control (dose: 200.0 mg/kg/injection, schedule: Q04DX003 (ip), vehicle: saline with Tween-80).
On to `CCOC(=O)C1=C(C(=O)c2ccccc2)C(c2ccc([N+](=O)[O-])cc2)C(C(=O)c2ccccc2)=C(C(=O)OCC)N1`, for which the T/C was 94 % of control (dose: 7.5 mg/kg/injection, schedule: Q01DX005 (ip), vehicle: Klucel (hydroxypropylcellulose) (HPC)); 95 % of control (dose: 15.0 mg/kg/injection, schedule: Q01DX005 (ip), vehicle: Klucel (hydroxypropylcellulose) (HPC)); 100 % of control (dose: 30.0 mg/kg/injection, schedule: Q01DX005 (ip), vehicle: Klucel (hydroxypropylcellulose) (HPC)).
`C=C(CCCCOCOCCOC)c1ccccc1`: the T/C runs as follows: under setting [1], 106 % of control; under setting [2], 107 % of control; under setting [3], 99 % of control.
For the molecule `CCCCC(CC)C(=O)OCCCNC(=O)C(C)OC(=O)C(CC)CCCC` (stereo not drawn), the T/C by setting is: under setting [4], 104 % of control; under setting [5], 87 % of control; under setting [6], 104 % of control.
With `O=P1(c2ccccc2)Cc2ccccc2N1Cc1ccccc1` (stereo not drawn), the T/C under setting [4] was 100 % of control, the T/C under setting [5] was 103 % of control and the T/C under setting [6] was 104 % of control.
On to `CCOCCOCCOC(C)Oc1ccccc1OC` (stereo not drawn), for which the T/C was 100 % of control (dose: 60.0 mg/kg/injection, schedule: Q01DX005 (ip), vehicle: saline with Tween-80); 104 % of control (dose: 120.0 mg/kg/injection, schedule: Q01DX005 (ip), vehicle: saline with Tween-80); 106 % of control (dose: 240.0 mg/kg/injection, schedule: Q01DX005 (ip), vehicle: saline with Tween-80).
With `CCOC(=O)c1cnc2c(C(F)(F)F)cccc2c1Nc1ccc2c(c1)OCO2`, the T/C reads like this: (dose: 60.0 mg/kg/injection, schedule: Q01DX005 (ip), vehicle: Klucel + Tween-80) 100 % of control; (dose: 120.0 mg/kg/injection, schedule: Q01DX005 (ip), vehicle: Klucel + Tween-80) 103 % of control; (dose: 240.0 mg/kg/injection, schedule: Q01DX005 (ip), vehicle: Klucel + Tween-80) 97 % of control.
With `Nc1ccc(S(N)(=O)=O)cc1`, the T/C (dose: 12.5 mg/kg/injection, schedule: Q01DX009 (ip), vehicle: saline with Tween-80) is 105 % of control and 112 % of control; the T/C (dose: 150.0 mg/kg/injection, schedule: Q01DX009 (ip), vehicle: saline with Tween-80) was 108 % of control and 97 % of control; the T/C (dose: 200.0 mg/kg/injection, schedule: Q01DX009 (ip), vehicle: saline with Tween-80) was 101 % of control and 89 % of control; the T/C (dose: 400.0 mg/kg/injection, schedule: Q01DX009 (ip), vehicle: saline with Tween-80) was 98 % of control and 100 % of control.
`NC(=O)N/N=C1\CC2C=CC1/C=C\C=C\2` (stereo not drawn): the T/C is, setting by setting: under setting [7], 100 % of control; under setting [8], 106 % of control; under setting [9], 106 % of control.
As to `COc1cc2c(Cl)ncnc2c(OC)c1OC`, the T/C is, setting by setting: under setting [4], 106 % of control; under setting [5], 106 % of control; under setting [6], 109 % of control.
Take `CCN(CC)CCN(C(=O)OCCOC(=O)N(CCN(CC)CC)c1cccc2sc3ccccc3c(=O)c12)c1cccc2sc3ccccc3c(=O)c12`: the T/C reads like this: under setting [4], 99 % of control; under setting [5], 106 % of control; under setting [6], 105 % of control.
On to `CC(=O)Oc1ccccc1C(=O)OC(C)c1ccccc1` (stereo not drawn), for which the T/C is 100 % of control under setting [10]; 98 % of control under setting [11]; 104 % of control (dose: 200.0 mg/kg/injection, schedule: Q01DX005 (ip), vehicle: Klucel (hydroxypropylcellulose) (HPC)).
With `CC(C)N=C(c1ccccc1)N1CCCCC1`, the T/C (dose: 12.5 mg/kg/injection, schedule: Q01DX009 (ip), vehicle: saline) was 98 % of control and the T/C under setting [12] was 100 % of control.
Consider `CN(C)CCCNC(=O)c1nn(-c2ccccc2)c2c1N(C)S(=O)(=O)c1ccccc1-2`, for which the T/C reads like this: under setting [1], 92 % of control; under setting [2], 99 % of control; under setting [3], 101 % of control.
Consider `COC(C)(C)c1cc(C(C)(C)C)cc2c1SOC2(C)C`, for which the T/C was 94 % of control (dose: 100.0 mg/kg/injection, schedule: Q04DX002 (ip), vehicle: Klucel (hydroxypropylcellulose) (HPC)); 100 % of control (dose: 200.0 mg/kg/injection, schedule: Q04DX002 (ip), vehicle: Klucel (hydroxypropylcellulose) (HPC)); 114 % of control (dose: 400.0 mg/kg/injection, schedule: Q04DX002 (ip), vehicle: Klucel (hydroxypropylcellulose) (HPC)).
Turning to `COC1C(CO)OC(Oc2ccc(C(=C3CCCCC3)c3ccc(O)cc3)cc2)C(O)C1O` (stereo not drawn), the T/C was 95 % of control under setting [13], 95 % of control under setting [14] and 94 % of control under setting [15].
For the molecule `CCN(CC)CCOC(=O)C(c1ccccc1)C(C)(O)CC` (stereo not drawn), the T/C is 105 % of control under setting [12], 100 % of control under setting [13] and 115 % of control under setting [14].
Take `Cc1cccnc1NC(=S)Nc1ccccc1Cl`: the T/C is, setting by setting: (dose: 12.5 mg/kg/injection, schedule: Q01DX009 (ip), vehicle: gum acacia) 104 % of control; (dose: 25.0 mg/kg/injection, schedule: Q01DX009 (ip), vehicle: gum acacia) 96 % of control; (dose: 50.0 mg/kg/injection, schedule: Q01DX009 (ip), vehicle: gum acacia) 104 % of control; (dose: 100.0 mg/kg/injection, schedule: Q01DX009 (ip), vehicle: gum acacia) 95 % of control.
Regarding `O=c1c2ccccc2[nH]c2c1[nH]c1ccccc12`, the T/C reads like this: under setting [10], 89 % of control; under setting [11], 90 % of control.
On to `Cc1c2c(cc3c4ccccc4n(C)c13)C(=O)c1ccccc1C2=O`, for which the T/C reads like this: (dose: 100.0 mg/kg/injection, schedule: Q04DX002 (ip), vehicle: saline with Tween-80) 90 % of control; (dose: 200.0 mg/kg/injection, schedule: Q04DX002 (ip), vehicle: saline with Tween-80) 87 % of control; (dose: 400.0 mg/kg/injection, schedule: Q04DX002 (ip), vehicle: saline with Tween-80) 92 % of control.
Turning to `O=[N+]([O-])c1ccc(CS(=O)(=O)C(Cl)(Cl)Cl)o1`, the T/C is 108 % of control and 112 % of control and 87 % of control (dose: 6.25 mg/kg/injection, schedule: Q01DX009 (ip), vehicle: saline); 86 % of control (dose: 50.0 mg/kg/injection, schedule: Q01DX009 (ip), vehicle: suspension in saline); 86 % of control (dose: 200.0 mg/kg/injection, schedule: Q01DX009 (ip), vehicle: suspension in saline).
For the molecule `O=c1cc[nH]cc1`, the T/C under setting [13] was 100 % of control and 103 % of control; the T/C under setting [14] was 103 % of control and 109 % of control; the T/C under setting [15] is 101 % of control and 113 % of control; the T/C (dose: 400.0 mg/kg/injection, schedule: Q01DX009 (ip), vehicle: saline) is 111 % of control and 116 % of control; the T/C (dose: 600.0 mg/kg/injection, schedule: Q01DX009 (ip), vehicle: saline) is 112 % of control and 113 % of control.
As to `CC(=N)C1C(=O)C=C(C)OC1=O` (stereo not drawn), the T/C reads like this: under setting [13], 86 % of control; under setting [14], 88 % of control; under setting [15], 88 % of control.
Turning to `COC(=O)C(C)(O)C(C)C1CO1` (stereo not drawn), the T/C is 98 % of control under setting [1], 101 % of control under setting [2] and 121 % of control under setting [3].
On to `CCOc1ccc(N=Nc2c(O)n(-c3ccc(Br)cc3)c(=S)n(-c3ccccc3)c2=O)cc1`, for which the T/C is 107 % of control under setting [7], 98 % of control under setting [8] and 100 % of control under setting [9].
